# What was measured:
# [1] = test system: 786-O VHL^− cells; test: 3D assay on Multicellular Tumor Spheroids (Propidium Iodide); format: cell-based, human; conditions: 5 μM, 48 h, P≤0.0001 Kruskal-Wallis
# Procedure: For 3-D culture (spheroids), the spheroids were prepared in 96-wells U-bottom tissue culture plate with low evaporation Lid (Microtest™, Becton Dickinson Labware, San Jose, Calif.) coated with 20 mg/mL of poly-HEMA per well to allow the formation of spheroids. Renal cancer cells 786-O WT, 786-O pBABE and 786-O VHL (taken from exponentially growing cultures) were seeded at a density of […] in RPMI supplemented with 10% FCS. 90 μL (9×10^2 cells) of these cell suspensions were deposed in each well then tissue culture plates were incubated at 37° C. and 5% CO2 for 3 days before drug treatment for further 48 h.
# Three days pre-formed spheroids were treated with the different drugs at indicated concentrations during 48 H. After that, Hoechst (200 ng/mL) and Propidium Iodide (1 μg/mL) were added as markers of cell nuclei and cell death respectively. Images of IP and Hoechst fluorescence were acquired at the CMBA platform using the automated microscope ArrayScanVTI (ThermoScientific). ArrayScanVTI is a fluorescent microscope which allows the rapid and fully automated acquisition of images of fixed or live cells in 96-well microplates at different magnifications. Dedicated softwares are used to automatically perform High Content image Analysis like spheroid area measurement, fluorescent intensity measurement of each staining and counting of the number of dead cells.
# [2] = test system: 786-O VHL^− cells; test: FACS cell cycle analysis (Propidium Iodide); format: cell-based, human; conditions: hypoxic conditions, 48 h
# Procedure: FIG. 6: A) FACS analysis of 786-O VHL^− cells treated for 48 h with indicated compounds under hypoxic conditions and labeled with Propidium Iodide for cell cycle analysis.
# [3] = test system: 786-O VHL^− cells; test: Viability assay (PrestoBlue) / high-throughput drug-gene screening; format: cell-based, human; conditions: for sensitivity of cells to ATM inhibitor after shRNA-mediated knockdown of CK2α (cell viability): shCK2α vs shCTRL 786-O cells, 48 h
# Procedure: Cytotoxicity was measured using PrestoBlue assay (Invitrogen, Carlsbad, Calif.). Cell lines were seeded in a 96-well microtiter plate at a concentration of 5×10^4 cells/mL. Cells were allowed to attach for 24 hrs at 37° C. and 5% CO2. The cells were exposed to the negative control DMSO or positive drug CX-4945 at 20 μM for 48 h or the other molecules at indicated concentrations. […] DMSO was used as a negative control and 20 μM CX-4945 as a positive control. Plates were further cultured for 48 hrs. Cells were labeled with vital Hoechst (33342) together with Prestoblue and the fluorescence reading was made through the Tecan's Infinite M100 reader. See Flow chart in FIG. 1. Raw data were first imported into the database of the home-made analysis software TAMIS, used for analysis. […] Finally, for each compound X/targeted-shRNA Y pair and assay, the activity percentage obtained with the compound X/Ctrl-shRNA was taken from the compound X/targeted-shRNA Y activity percentage in order to identify compound X/targeted-shRNA Y pair showing additive, or even synergistic, effect compared to compound X/Ctrl-shRNA pair.
# [4] = biological target: T1, ATM (Homo sapiens, UniProt Q13315); test: Western blot of ATM phosphorylation in 786-O cells; format: cell-based; conditions: 786-O VHL^+/−, 1.5% O2, 5 μM, 48 h
# T1 construct: endogenous in cells; host or cells: 786-O cells (VHL- and VHL+), cultured under 1.5% O2
# T1 sequence (Q13315 whole entry): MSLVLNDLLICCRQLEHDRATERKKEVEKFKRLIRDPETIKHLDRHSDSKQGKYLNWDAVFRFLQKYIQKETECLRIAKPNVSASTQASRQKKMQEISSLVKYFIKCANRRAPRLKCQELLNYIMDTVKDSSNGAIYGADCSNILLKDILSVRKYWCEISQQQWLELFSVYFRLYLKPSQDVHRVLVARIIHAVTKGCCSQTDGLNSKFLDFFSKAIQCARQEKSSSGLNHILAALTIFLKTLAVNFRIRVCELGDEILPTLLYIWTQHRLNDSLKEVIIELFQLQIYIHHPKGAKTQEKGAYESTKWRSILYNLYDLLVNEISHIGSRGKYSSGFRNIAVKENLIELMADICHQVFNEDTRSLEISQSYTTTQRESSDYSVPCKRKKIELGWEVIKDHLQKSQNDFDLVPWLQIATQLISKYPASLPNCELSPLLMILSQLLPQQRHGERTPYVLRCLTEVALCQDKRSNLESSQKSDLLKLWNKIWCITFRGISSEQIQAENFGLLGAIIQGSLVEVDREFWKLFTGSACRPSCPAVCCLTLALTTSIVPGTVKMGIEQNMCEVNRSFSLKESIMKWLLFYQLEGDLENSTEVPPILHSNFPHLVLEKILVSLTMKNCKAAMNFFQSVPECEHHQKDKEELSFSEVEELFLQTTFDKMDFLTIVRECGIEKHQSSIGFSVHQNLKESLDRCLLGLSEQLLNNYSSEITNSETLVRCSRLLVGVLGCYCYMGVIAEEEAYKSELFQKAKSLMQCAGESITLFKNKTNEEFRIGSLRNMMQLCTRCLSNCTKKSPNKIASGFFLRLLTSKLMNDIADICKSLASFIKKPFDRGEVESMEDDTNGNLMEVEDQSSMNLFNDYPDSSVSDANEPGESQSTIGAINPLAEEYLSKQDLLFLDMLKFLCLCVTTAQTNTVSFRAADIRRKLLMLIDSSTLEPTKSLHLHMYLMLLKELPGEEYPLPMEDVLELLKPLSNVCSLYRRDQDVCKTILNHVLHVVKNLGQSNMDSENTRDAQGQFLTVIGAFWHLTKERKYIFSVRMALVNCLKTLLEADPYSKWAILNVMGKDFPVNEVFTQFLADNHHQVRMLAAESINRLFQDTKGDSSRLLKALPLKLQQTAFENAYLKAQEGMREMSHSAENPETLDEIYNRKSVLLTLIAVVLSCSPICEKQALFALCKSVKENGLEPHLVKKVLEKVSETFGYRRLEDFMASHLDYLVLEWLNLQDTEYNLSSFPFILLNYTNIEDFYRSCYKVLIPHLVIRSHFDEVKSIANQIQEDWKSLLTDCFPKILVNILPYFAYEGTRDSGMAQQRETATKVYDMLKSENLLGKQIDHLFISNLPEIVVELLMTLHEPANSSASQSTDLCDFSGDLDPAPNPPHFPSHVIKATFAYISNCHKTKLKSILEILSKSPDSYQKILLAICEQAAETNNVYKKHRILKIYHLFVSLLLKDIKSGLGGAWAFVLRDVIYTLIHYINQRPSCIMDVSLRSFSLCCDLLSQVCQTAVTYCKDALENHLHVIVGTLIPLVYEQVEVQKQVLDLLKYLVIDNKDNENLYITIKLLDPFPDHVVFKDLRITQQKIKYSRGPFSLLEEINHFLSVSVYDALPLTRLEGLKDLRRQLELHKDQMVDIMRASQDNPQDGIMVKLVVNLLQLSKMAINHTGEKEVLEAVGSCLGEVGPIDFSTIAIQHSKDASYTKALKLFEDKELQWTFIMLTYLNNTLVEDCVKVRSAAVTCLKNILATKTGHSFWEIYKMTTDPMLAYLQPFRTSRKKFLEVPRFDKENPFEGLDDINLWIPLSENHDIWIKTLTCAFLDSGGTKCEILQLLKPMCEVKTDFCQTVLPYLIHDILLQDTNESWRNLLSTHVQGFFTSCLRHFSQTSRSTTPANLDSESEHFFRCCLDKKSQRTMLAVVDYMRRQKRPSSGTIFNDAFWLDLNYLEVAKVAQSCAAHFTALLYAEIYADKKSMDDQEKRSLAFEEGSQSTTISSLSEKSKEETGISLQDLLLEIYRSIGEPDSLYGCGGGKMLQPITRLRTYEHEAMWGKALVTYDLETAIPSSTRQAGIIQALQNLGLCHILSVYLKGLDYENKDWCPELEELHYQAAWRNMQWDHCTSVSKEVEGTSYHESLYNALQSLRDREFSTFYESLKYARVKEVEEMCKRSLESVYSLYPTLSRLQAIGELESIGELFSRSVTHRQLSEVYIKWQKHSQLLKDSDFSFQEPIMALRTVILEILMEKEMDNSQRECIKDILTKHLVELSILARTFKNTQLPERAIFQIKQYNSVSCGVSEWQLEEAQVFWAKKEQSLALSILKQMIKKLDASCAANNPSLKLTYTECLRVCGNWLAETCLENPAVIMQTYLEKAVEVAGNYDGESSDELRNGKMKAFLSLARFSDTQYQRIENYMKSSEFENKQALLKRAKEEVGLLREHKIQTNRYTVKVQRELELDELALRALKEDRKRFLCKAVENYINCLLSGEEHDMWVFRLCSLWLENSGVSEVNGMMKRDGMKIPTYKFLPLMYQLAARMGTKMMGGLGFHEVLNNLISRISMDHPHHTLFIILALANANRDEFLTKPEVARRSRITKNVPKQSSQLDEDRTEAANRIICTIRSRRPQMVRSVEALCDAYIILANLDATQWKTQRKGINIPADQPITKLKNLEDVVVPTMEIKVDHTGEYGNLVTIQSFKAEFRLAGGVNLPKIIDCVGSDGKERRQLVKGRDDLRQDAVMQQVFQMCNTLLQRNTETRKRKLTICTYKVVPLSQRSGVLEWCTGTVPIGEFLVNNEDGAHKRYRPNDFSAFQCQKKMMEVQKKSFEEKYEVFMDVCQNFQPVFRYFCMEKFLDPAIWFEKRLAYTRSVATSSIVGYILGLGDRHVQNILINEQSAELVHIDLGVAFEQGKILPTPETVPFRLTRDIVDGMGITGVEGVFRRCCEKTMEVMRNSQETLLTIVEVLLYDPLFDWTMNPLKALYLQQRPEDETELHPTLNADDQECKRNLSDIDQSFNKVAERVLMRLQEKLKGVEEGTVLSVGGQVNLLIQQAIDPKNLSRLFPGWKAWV
# Procedure: Blotted membranes were blocked during 1 h at room temperature with saturation buffer (1% BSA in TBST), and then incubated with primary antibody diluted in saturation buffer, during 1 h 30. Secondary antibodies were added for 1 hour.
Structure (SMILES),cell death in shATM MTS versus vehicle [1],effect on G1 phase [2],sensitivity of cells to ATM inhibitor after shRNA-mediated knockdown of CK2α (cell viability) [3],cell death in shCK2α MTS versus vehicle (DMSO) [1],"efficiency of ATM inhibitor compared with KU-55933 ([3]; 786-O cell viability, with CK2 inhibitors (FIG. 2C))",inhibition of ATM (phosphorylation of P-ATM Ser1981) [4]
"O=C(O)c1ccc2c(c1)nc(Nc1cccc(Cl)c1)c1ccncc12 [CX-4945, 5-(3-chlorophenylamino)benzo[c][2,6]naphthyridine-8-carboxylic acid]",Significant difference,without effect,–,–,–,–
"O=c1cc(-c2cccc3c2Sc2ccccc2S3)oc(N2CCOCC2)c1 [KU-55933, 2-Morpholin-4-yl-6-thianthren-1-yl-pyran-4-one]",–,–,enhanced the sensitivity,–,–,–
"C[C@@H]1CN(CC(=O)Nc2ccc3c(c2)Cc2cccc(-c4cc(=O)cc(N5CCOCC5)o4)c2S3)C[C@H](C)O1 [KU-60019, 2-((2S,6R)-2,6-dimethylmorpholino)-N-(5-(6-morpholino-4-oxo-4H-pyran-2-yl)-9H-thioxanthen-2-yl)acetamide]",–,–,enhanced the sensitivity,Significant difference,significantly more efficient,clearly inhibited

# Source: patent US10322133B2, “Synthetic lethal drug combination for treating renal cell carcinoma” (Commissariat a l'Energie Atomique et aux Energies …, priority 2015, dated 2019)
